Source: PubChem BioAssay (NCI)
Values joined by “and” are separate entries in the source; they are usually repeats but may differ in a detail not shown here. Equal values may be shown once.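 Results reflect a 48-hour exposure of cells in 96-well plates to compound at five concentrations. At the GI50, growth is halved. TGI denotes the concentration required for complete inhibition of growth.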

Tests used:
Experiment in all cases: DTP human tumour cell line panel, 48 h
[1] = system: ACHN renal
[2] = system: BT-549 breast
[3] = system: CCRF-CEM leukemia
[4] = system: HS 578T breast
[5] = system: MDA-MB-435
[6] = system: NCI-H460 lung
[7] = system: OVCAR-3 ovarian
[8] = system: SK-MEL-28 melanoma
[9] = system: UACC-257 melanoma
[10] = system: UACC-62 melanoma

| Structure (SMILES) | GI50 [1] | TGI [1] [µM] | GI50 [2] | TGI [2] | GI50 [3] | TGI [3] [µM] | GI50 [4] | GI50 [5] | TGI [5] [µM] | GI50 [6] | TGI [6] [µM] | GI50 [7] | TGI [7] [µM] | GI50 [8] | TGI [8] | GI50 [9] | TGI [9] | GI50 [10] | TGI [10] | TGI [4] |
| --- | --- | --- | --- | --- | --- | --- | --- | --- | --- | --- | --- | --- | --- | --- | --- | --- | --- | --- | --- | --- |
| O=C1OCC2=C1C(c1ccccc1)c1cc3c(cc1N2CCO)CCC3 (stereo unspecified) | 0.148 µM | > 25 | 0.223 µM | > 25 µM | 0.117 µM | > 25 | 0.0739 µM | 0.0429 µM | 0.129 | 0.09 µM | 3.51 | 0.0467 µM | 0.0975 | 0.168 µM | > 25 µM | 0.0862 µM | > 25 µM | 0.111 µM | > 25 µM | – |
| CCc1ccc(/C(C#N)=C/C=C/c2ccccc2)cc1 | 8.41 µM | > 100 | 7.86 µM | > 59.8 µM | 3.11 µM | > 100 | 5.25 µM | 0.299 µM | 1.16 | 3.35 µM | > 42.7 | 2.46 µM | 13.6 | 7.12 µM | > 100 µM | > 83.5 µM | > 100 µM | 3.48 µM | > 100 µM | > 100 µM |
| Cc1ccccc1NC(=O)N/C(N)=N/c1nc2ccccc2s1 | 0.0729 µM | > 100 | 0.128 µM | – | 0.0402 µM | > 100 | 0.0494 µM | 0.0208 µM | 0.0553 | 0.113 µM | > 100 | 0.0358 µM | 0.267 | 3.37 µM | > 100 µM | > 100 µM | > 100 µM | 0.0425 µM | > 100 µM | > 100 µM |
| Clc1ccc(N/N=C/c2ccccn2)nc1 | 0.379 µM | > 100 | 0.554 µM | > 55 µM | 0.332 µM | > 100 | 3.39 µM | 0.56 µM | > 100 | 0.379 µM | > 42.7 | 0.295 µM | > 100 | 0.598 µM | > 100 µM | 0.636 µM | > 23.6 µM | 0.301 µM | 1.08 µM | > 100 µM |
| COc1cc(C2=Nc3c/c(=C\c4c(O)[nH]c5ccc(Cl)cc45)ccc3=N2)cc(OC)c1OC | 6.67 µM | 24.2 | 2.51 µM | 9.94 µM | 2.29 µM | 8.55 | 1.69 µM | 1.73 µM | 3.86 | 2.7 µM | 8.65 | 3.07 µM | 11.1 | 3.2 µM | 12.7 µM | 1.96 µM | 4.77 µM | 1.94 µM | 7.97 µM | 5.86 µM |
| CCNC(=O)Nc1ccc(-c2nc3c(c(N4CCOC[C@@H]4C)n2)CCN(C2COC2)C3)cc1 | 0.285 µM and 0.395 µM | > 56.2 | 0.175 µM and 0.115 µM | 1.96 µM and 1.79 µM | 0.525 µM and 0.393 µM | > 100 | 0.155 µM and 0.146 µM | 0.3 µM and 0.318 µM | > 25.6 | 0.236 µM and 0.13 µM | > 100 | 0.355 µM and 0.229 µM | > 69.5 | 0.199 µM and 0.157 µM | 5.39 µM and 2.24 µM | 0.232 µM and 0.287 µM | 2.74 µM and 3.92 µM | 0.194 µM and 0.0727 µM | 1.28 µM and 0.994 µM | 0.804 µM and 0.93 µM |
| Nc1cccc(-c2nc3sccn3c2-c2ccnc(NCCCNS(=O)(=O)c3ccc(C(F)(F)F)cc3)n2)c1 | 3.34 µM | 27.1 | 2.95 µM | 13.1 µM | 3.06 µM | 14.4 | 4.05 µM | 3.21 µM | 12.3 | 4.58 µM | 58.6 | 3.87 µM | 23.4 | 5.07 µM | 26.7 µM | 5.27 µM | 50.6 µM | 2.68 µM | 9.71 µM | 61.6 µM |
| CN(C)c1cc2c(Nc3ccc4nc(Cc5ccccc5)[nH]c4c3)ncnc2cn1 | 11.8 µM | > 25 | > 18.2 µM | > 25 µM | > 18.7 µM | > 25 | > 17.6 µM | > 20.9 µM | > 25 | 13.1 µM | > 25 | > 18.3 µM | > 25 | > 12.4 µM | > 20 µM | > 15.3 µM | > 25 µM | > 18.3 µM | > 25 µM | > 25 µM |
| C[C@@]12CCC[C@@](C)(C(=O)O)C1CC[C@]13C=C(CO)[C@](O)(CCC12)C3 (stereo partly specified) | > 100 µM | > 100 | > 100 µM | > 100 µM | 65.9 µM | > 100 | > 100 µM | > 100 µM | > 100 | > 100 µM | > 100 | > 100 µM | > 100 | > 100 µM | > 100 µM | > 100 µM | > 100 µM | > 100 µM | > 100 µM | > 100 µM |
| COc1c(Nc2ncc(Cl)c(N[C@@H]3[C@H]4C=CC(C4)[C@@H]3C(N)=O)n2)ccc2c1CC[C@@H](N1CCOCC1)CC2 | 2.66 µM | 24.3 | 3.66 µM | 14.8 µM | 5.25 µM | 39.2 | 1.88 µM | 2.72 µM | 15.7 | 4.19 µM | 18.2 | 7.06 µM | 24.5 | 3.25 µM | 17.7 µM | 4.81 µM | 19.8 µM | 2.81 µM | 18.8 µM | 9 µM |
| NC(=O)c1cccc(N)c1 | > 100 µM | > 100 | > 100 µM | > 100 µM | > 100 µM | > 100 | > 100 µM | > 100 µM | > 100 | > 100 µM | > 100 | > 100 µM | > 100 | > 100 µM | > 100 µM | – | – | > 100 µM | > 100 µM | > 100 µM |
| COc1cc2c3c(n(CCCN=[N+]=[N-])c(=O)c2cc1OC)-c1ccc(N)cc1C3=O | 0.102 µM | 1.02 | 0.244 µM | 6.4 µM | 0.0277 µM | 1.1 | 1.53 µM | 0.479 µM | 1.65 | 0.0265 µM | 0.139 | 0.249 µM | 0.923 | 0.613 µM | 2.78 µM | 0.431 µM | 1.49 µM | 0.082 µM | 0.451 µM | > 24.9 µM |
| O=c1oc2c(Br)c(O)c(Br)cc2c2ccccc12 | – | > 100 | – | 75.3 µM | – | 65.4 | – | – | > 100 | – | 57 | – | 40.7 | – | > 100 µM | – | 61.7 µM | – | 50.5 µM | 66.2 µM |
